Results: article PMC3707396 (Bioorganic & medicinal chemistry letters, 2013)
pIC50: −log10 of the molar value.

Experiments:
[1] = system: PC-3 cells; experiment: WST-1 cytotoxicity in transfected PC-3 cells; format: cell-based; conditions: Homo sapiens, PC-3, read-out: % inh WST-1 (100 μM)
[2] = system: mice; experiment: In vivo tolerability study
[3] = system: PC-3 cells; conditions: cited from earlier work
[4] = Kinetic solubility; format: physicochemical; conditions: for Solubility bin (high, medium or low): kinetic solubility, ranges not printed (in reference)
[5] = Passive permeability, PAMPA Explorer Kit; format: in vitro ADME; conditions: for Log Peff: log of effective permeability, mean of n = 3; for Permeability bin (high, medium or low): ranges not printed (Ref 17)
[6] = system: MKL1; conditions: preliminary studies; cited from earlier work
[7] = system: SK-Mel-147 cells; experiment: WST-1 cytotoxicity in SK-Mel-147 cells; format: cell-based
[8] = target: Rho-pathway selective serum response element-luciferase reporter (SRE.L); conditions: read-out: IC50 (SRE.L); cited from earlier work

CC(C)(C)CC(=O)Nc1cccc(C(=O)N2CCCC(C(=O)Nc3ccc(Cl)cc3)C2)c1 (stereo not drawn) [Compound 8e]
inhibition at 100 µM [1]: 0%

O=C(Nc1ccc(Cl)cc1)C1CCCN(C(=O)c2cccc([N+](=O)[O-])c2)C1 (stereo not drawn) [Compound 8s]
inhibition at 100 µM [1]: 0%

CSc1cccc(C(=O)N2CCCC(C(=O)Nc3ccc(Cl)cc3)C2)c1 (stereo not drawn) [Compound 8i]
inhibition at 100 µM [1]: 0%

COCc1cccc(C(=O)N2CCCC(C(=O)Nc3ccc(Cl)cc3)C2)c1 (stereo not drawn) [Compound 8o]
inhibition at 100 µM [1]: 0%

O=C(c1ccccc1)c1cccc(C(=O)N2CCCC(C(=O)Nc3ccc(Cl)cc3)C2)c1 (stereo not drawn) [Compound 8b]
inhibition at 100 µM [1]: 0%

CC(ONC(=O)c1cc(C(F)(F)F)cc(C(F)(F)F)c1)C(=O)Nc1ccc(Cl)cc1 (stereo not drawn) [Compound 1, reference compound]
In vivo tolerability (toxicity) ([2]; repeated dosing at 7.5 mg/kg intraperitoneally (IP)): deaths observed | Inhibition of invasion of PC-3 prostate cancer cells ([3]; Matrigel model of metastasis): inhibits invasion

C=Cc1cccc(C(=O)N2CCCC(C(=O)Nc3ccc(Cl)cc3)C2)c1 (stereo not drawn) [Compound 8f]
inhibition at 100 µM [1]: 0%

Cc1nc(-c2cccc(C(=O)N3CCCC(C(=O)Nc4ccc(Cl)cc4)C3)c2)no1 (stereo not drawn) [Compound 8m]
inhibition at 100 µM [1]: 0%

O=C(Nc1cccc(Cc2ccccc2)c1)C1CCCN(C(=O)c2cc(C(F)(F)F)cc(C(F)(F)F)c2)C1 (stereo not drawn) [Compound 12b]
Solubility bin (high, medium or low) [4]: LOW | Log Peff [5]: −4.7 ± 0.05 cm/s | Permeability bin (high, medium or low) [5]: MOD

O=C(Nc1ccc(Cl)cc1)C1CCCN(C(=O)c2cc(C(F)(F)F)cc(C(F)(F)F)c2)C1 (stereo not drawn) [Compound 2, reference compound]
Inhibition of invasion into Matrigel by cultured PC-3 cells [3]: can inhibit invasion | solubility [4]: < 10 µg/mL | Solubility bin (high, medium or low) [4]: LOW | Log Peff [5]: −10 ± 0.00 cm/s | Permeability bin (high, medium or low) [5]: LOW

O=C(Nc1ccc(Cl)cc1)C1CCCN(C(=O)c2cccc(-c3ccco3)c2)C1 (stereo not drawn) [Compound 8a]
Effect on MKL1 nuclear localization [6]: blocks MKL1 nuclear localization | WST-1 cytotoxicity [7]: no WST-1 cytotoxicity | Body weight over the course of the study ([2]; 10, 20, 50 and 100 mg/kg/day IP, 5 days): Weight was maintained | Abnormality observed at dissection ([2]; 10, 20, 50 and 100 mg/kg/day IP, 5 days, sacrifice on 8th day): slight increase in liver weight | Tolerability in mice ([2]; 5 days, up to 100 mg/kg/day IP, normal mice): well tolerated | Solubility bin (high, medium or low) [4]: LOW | Log Peff [5]: −8.3 ± 2.3 cm/s | Permeability bin (high, medium or low) [5]: LOW | inhibition at 100 µM [1]: 0%

O=C(CCNC(=O)c1cc(C(F)(F)F)cc(C(F)(F)F)c1)Nc1ccc(Cl)cc1 [Compound 19, reference compound]
pIC50 [8]: 4.42 | Solubility bin (high, medium or low) [4]: LOW | Log Peff [5]: −10 ± 0.00 cm/s | Permeability bin (high, medium or low) [5]: LOW

O=C(Nc1ccc(Cl)cc1)C1CCCN(C(=O)c2cccc(-c3cnco3)c2)C1 (stereo not drawn) [Compound 8j]
inhibition at 100 µM [1]: 0%

N#Cc1cccc(C(=O)N2CCCC(C(=O)Nc3ccc(Cl)cc3)C2)c1 (stereo not drawn) [Compound 8q]
inhibition at 100 µM [1]: 0%

O=C(Nc1ccc(Cl)cc1)C1CCCN(C(=O)c2cccc(-c3cccs3)c2)C1 (stereo not drawn) [Compound 8u]
Solubility bin (high, medium or low) [4]: LOW | Log Peff [5]: −10 ± 0.00 cm/s | Permeability bin (high, medium or low) [5]: LOW

CCN(CC)S(=O)(=O)c1cccc(C(=O)N2CCCC(C(=O)Nc3ccc(Cl)cc3)C2)c1 (stereo not drawn) [Compound 8k]
inhibition at 100 µM [1]: 0%

O=C(Nc1cccc(Oc2ccccc2)c1)C1CCCN(C(=O)c2cc(C(F)(F)F)cc(C(F)(F)F)c2)C1 (stereo not drawn) [Compound 12a]
Solubility bin (high, medium or low) [4]: LOW | Log Peff [5]: −5.1 ± 0.40 cm/s | Permeability bin (high, medium or low) [5]: MOD-LOW

Cc1cccc(C(=O)N2CCCC(C(=O)Nc3ccc(Cl)cc3)C2)c1 (stereo not drawn) [Compound 8h]
inhibition at 100 µM [1]: 0%

COc1cccc(C(=O)N2CCCC(C(=O)Nc3ccc(Cl)cc3)C2)c1 (stereo not drawn) [Compound 8n]
inhibition at 100 µM [1]: 0%

COC(=O)c1cccc(C(=O)N2CCCC(C(=O)Nc3ccc(Cl)cc3)C2)c1 (stereo not drawn) [Compound 8l]
inhibition at 100 µM [1]: 0%
